Measurements reported in patent US8057810B2, “Peptide substance revealing an immunogeroprotective effect, pharmaceutical composition on its base and the method of its application” (priority 2006, dated 2011).
Residues, ends and D or L forms follow the SMILES beside them.

What was measured:
[1] = test system: old rats' spleen explants; experiment: Development of spleen explants taken from old rats (area index); assay type: cell-based; details: 10 ng/ml
Description: The experiments were staged on 35 fragments of the thymus and 45 fragments of the spleen taken from rats aged 24 months. Nutritional medium for cultivation consisted of 35% Eagle's solution, 25% calf fetal serum, 35% Hanx solution, 5% chicken embryonic extract, with the addition of glucose (0.6%), insulin (0.5 U/ml), penicillin (100 U/ml), glutamin (2 mM). […]
Peptide H-Glu-Asp-Pro-OH was added into the experimental medium in concentrations of 0.5, 10 and 100 ng/ml.
Area index (AI)—the ratio of total explant area including the growth zone to the initial area of thymus or spleen fragment was used as a criterion for measuring the biological activity. AI values were expressed in percent, control AI value being taken as 100%.

[2] = test system: lymphocytes taken from very old patients; experiment: Chromatin in blood lymphocytes of old patients in vitro; assay type: cell-based, human; details: 0.01 μg/ml; lymphocytes of patients aged 75-88
Description: Peptide H-Glu-Asp-Pro-OH effect on the system of chromatin domains was studied in old people lymphocytes cultures, in particular on chromatin reactivation such as in deheterochromatinization of heterocliromatin satellite filaments (activity of synthetic processes in ribosomal genes, total heterochromatin, structural heterochromatin (changeability of C-blocks of the 1, 9 and 16 chromosomes) and optional heterochromatin.
The studies were conducted on the chromosomes of 150 PHA-stimulated and 40 PHA-non-stimulated lymphocyte cultures, obtained from 95 healthy patients aged 75-88 (control—25 donors aged 20-40). There were studied 2 cell cultures from each patient —one intact and one with peptide H-Glu-Asp-Pro-OH added into the cultural medium up to the ultimate concentration of 0.01 μg/ml. To study each parameter there were analyzed from 30 up to 50 metaphases of both intact lymphocyte cultures and those with added peptide (10 cultures of each).
To estimate ribosomal genes activity in intact cultures and under the effect of the peptide there were used methods of Ag-banding and of the registration of nucleolar organizers regions (NOR) of acrocentric chromosomes. Changeability of the activity level was estimated comparing two binomial totals.
Polymorphism of structural C-heterochromatin of the 1, 9 and 16 chromosomes was estimated. For comparative analysis of C-stained chromosomes of intact cultures and those treated with the peptide there was used a standard system of classification, according to which the size of the 1, 9, 16 chromosomes C-segments were compared to the chromosome 16 short leg and the results were divided into 5 categories—a, b, c, d, e. The changeability of facultative heterochromatin was estimated according to the frequency of sister chromatid exchange (SCE) in intact and peptide-treated lymphocytes.

white mongrel male rats = experiment: Subacute toxicity, 90 days intramuscular; assay type: in vivo; details: i.m. daily for 90 days, 1 μg/kg, 0.1 mg/kg, 1 mg/kg (100-1000 times the therapeutic dose)
Description: (§1) Common toxicity of H-Glu-Asp-Pro-OH was studied according to the requirements stated in the “Manual for experimental (pre-clinical) study of new pharmacological substances” (2005): acute toxicity in case of single administration of the substance and sub-acute and chronic toxicity in case of long-term administration of the peptide.
(§2) The study of acute toxicity was performed on 60 white mongrel male mice with body weight of 18-21 g. The animals were randomly subdivided into 6 equal groups. The substance was administered to the animals once, intramuscularly, in the doses of 1 mg/kg, 2 mg/kg, 3 mg/kg, 4 mg/kg, 5 mg/kg in 0.25 ml of sterile 0.9% NaCl solution. The control animals received 0.9% NaCl solution in the same volume. The study of subacute toxicity was performed on 50 white mongrel male rats with body weight of 170-210 g. Experimental animals received the substance daily, intramuscularly for 90 days in the doses of 1 μg/kg, 0.1 mg/kg, 1 mg/kg in 0.5 ml of sterile 0.9% NaCl solution. […] Upon completion of the experiment biochemical and coagulologic indices of the blood were also evaluated. […] Traditional methods were used for the evaluation of the following indices of the animals' peripheric blood: the quantity of erythrocytes, hemoglobin, reticulocytes, thrombocytes, leukocytes, leukocyte formula, erythrocyte sedimentation rate (ESR), erythrocyte resistance. […]

male guinea pigs = details: guinea pig, in vivo
Description: as §1, §2

## N[C@@H](CCC(=O)O)C(=O)N[C@@H](CC(=O)O)C(=O)N1CCC[C@H]1C(=O)O [Peptide H-Glu-Asp-Pro-OH, glutamyl-aspartyl-proline] (H-Glu-Asp-Pro-OH)
[1]; 7th day
  Stimulating effect on spleen explants at longer term: still visible, although it was less pronounced
[1]; rats aged 24 months
  Area index (AI) in spleen explants, increase: 28%
[2]
  Associated acrocentric chromosomes (per cell): 2.32 ± 0.12 per cell
  Deheterochromatinization of optional heterochromatin - SCE (per cell): 8.4 ± 0.5 per cell
  Structural heterochromatin (C-blocks), chromosome 1: Deheterochro-
  Structural heterochromatin (C-blocks), chromosome 9: Deheterochro-
  Structural heterochromatin (C-blocks), chromosome 16: Stable
  Total heterochromatin: Deheterochro-
White mongrel male rats
  Subacute toxicity: side effects: absence of any side effects
Male guinea pigs
  Changes in blood morphology, biochemical indices, ESR, erythrocyte resistance: no statistically significant changes
